In US9682938B2, “Pyrazolone derivatives as nitroxyl donors” (Cardioxyl Pharmaceuticals, Inc., priority 2014, dated 2017):

Experiments:
Format in all cases: in vitro ADME
[1] = In vitro plasma stability, dog plasma; details: male, pH 7.4, 5 μM, 37° C., sampling 0-360 minutes, read-out: T1/2 Dog
Description: (§1) Certain compounds from Table 1 were tested for their stability in plasma. The assay system comprised plasma from rat, dog or human (at least 3 donors, male, pooled) at pH 7.4, and (ii) an anticoagulant (sodium heparin or sodium citrate). Each test compound (5 μM) was incubated in plasma at 37° C. on a THERMOMIXER® with shaking. Three samples (n=3) were taken at each of seven sampling time points: 0, 10, 30, 60, 90, 180 and 360 minutes. The samples were immediately combined with 3 volumes (i.e., 3 times the volume of plasma) of acetonitrile containing 1% formic acid and an internal standard to terminate the reaction. AB SCIEX API 3000 LC-MS/MS analysis of the test compounds was performed without a standard curve. Plasma half-lives (T1/2) of the test compounds were determined from graphs of the percent remaining values using the peak area response ratio.

[2] = In vitro plasma stability, rat plasma; details: male, pH 7.4, 5 μM, 37° C., sampling 0-360 minutes, read-out: T1/2 Rat
Description: as §1

[3] = In vitro plasma stability, human plasma; details: male, pH 7.4, 5 μM, 37° C., sampling 0-360 minutes, read-out: T1/2 Human
Description: as §1

Compound `CN1N=C(c2cccc(C(F)(F)F)c2)C(C)(NO)C1=O` (stereo not drawn) [Compound 22, 4-(hydroxyamino)-2,4-dimethyl-5-(3-(trifluoromethyl)phenyl)-2,4-dihydro-3H-pyrazol-3-one] has a half-life at 5 μM [1] of 114 min, a half-life at 5 μM [2] of 44 min and a half-life at 5 μM [3] of 55 min.

`CC(C)(C)C1=NN(c2ccccc2)C(=O)C1(C)NO` (stereo not drawn) [Compound 23, 5-(tert-butyl)-4-(hydroxyamino)-4-methyl-2-phenyl-2,4-dihydro-3H-pyrazol-3-one] gave a half-life at 5 μM [1] of 120 min, a half-life at 5 μM [2] of 136 min and a half-life at 5 μM [3] of 104 min.

Work on `CC1=NN(c2ccccc2)C(=O)C1(NO)c1ccccc1` (stereo not drawn) [Compound 24, 4-(hydroxyamino)-5-methyl-2,4-diphenyl-2,4-dihydro-3H-pyrazol-3-one] yielded a half-life at 5 μM [1] of 16 min, a half-life at 5 μM [2] of 10 min and a half-life at 5 μM [3] of 11 min.

Work on `CC(C)N1N=C(c2ccccc2F)C(C)(NO)C1=O` (stereo not drawn) [Compound 26, 5-(2-fluorophenyl)-4-(hydroxyamino)-2-iso-propyl-4-methyl-2,4-dihydro-3H-pyrazol-3-one] yielded a half-life at 5 μM [1] of 65 min, a half-life at 5 μM [2] of 42 min and a half-life at 5 μM [3] of 45 min.

In the case of `CC1=NN(C)C(=O)C1(NO)c1ccc(F)cc1` (stereo not drawn) [Compound 27, 4-(4-fluorophenyl)-4-(hydroxyamino)-2,5-dimethyl-2,4-dihydro-3H-pyrazol-3-one], the half-life at 5 μM [1] is reported as 23 min, the half-life at 5 μM [2] is reported as 19 min and the half-life at 5 μM [3] is reported as 21 min.

In the case of `CC1=NN(C(C)C)C(=O)C1(NO)c1ccccc1` (stereo not drawn) [Compound 30, 4-(hydroxyamino)-1-isopropyl-3-methyl-4-phenyl-1H-pyrazol-5(4H)-one], the half-life at 5 μM [1] is reported as 84 min, the half-life at 5 μM [2] is reported as 32 min and the half-life at 5 μM [3] is reported as 22 min.

`CCC1(NO)C(=O)N(C)N=C1c1ccccc1F` (stereo not drawn) [Compound 31, 4-ethyl-5-(2-fluorophenyl)-4-(hydroxyamino)-2-methyl-2,4-dihydro-3H-pyrazol-3-one] showed a half-life at 5 μM [1] of 201 min, a half-life at 5 μM [2] of 66 min and a half-life at 5 μM [3] of 59 min.

Work on `CC(C)N1N=C(c2ccc(S(C)(=O)=O)cc2)C(C)(NO)C1=O` (stereo not drawn) [Compound 32, 4-(hydroxyamino)-2-iso-propyl-4-methyl-5-(4-(methylsulfonyl)phenyl)-2,4-dihydro-3H-pyrazol-3-one] yielded a half-life at 5 μM [1] of 148 min, a half-life at 5 μM [2] of 64 min and a half-life at 5 μM [3] of 100 min.

`CC1=NN(c2ccc(S(C)(=O)=O)cc2)C(=O)C1(C)NO` (stereo not drawn) [Compound 33, 4-(hydroxyamino)-4,5-dimethyl-2-(4-(methylsulfonyl)phenyl)-2,4-dihydro-3H-pyrazol-3-one] gave a half-life at 5 μM [1] of 100 min, a half-life at 5 μM [2] of 175 min and a half-life at 5 μM [3] of 130 min.

In the case of `CN1N=C(c2ccc([S+]([O-])C(F)(F)F)cc2)C(C)(NO)C1=O` (stereo not drawn) [Compound 35, 4-(hydroxyamino)-2,4-dimethyl-5-(4-((trifluoromethyl)sulfinyl)phenyl)-2,4-dihydro-3H-pyrazol-3-one], the half-life at 5 μM [1] is reported as 44 min, the half-life at 5 μM [2] is reported as 79 min and the half-life at 5 μM [3] is reported as 76 min.

`CSc1ccc(C2=NN(C)C(=O)C2(C)NO)cc1` (stereo not drawn) [Compound 36, 4-(hydroxyamino)-2,4-dimethyl-5-(4-(methylthio)phenyl)-2,4-dihydro-3H-pyrazol-3-one] showed a half-life at 5 μM [1] of 133 min, a half-life at 5 μM [2] of 300 min and a half-life at 5 μM [3] of 152 min.

In the case of `CC1=NN(C)C(=O)C1(NO)c1ccc(S(C)(=O)=O)cc1` (stereo not drawn) [Compound 37, 4-(hydroxyamino)-2,5-dimethyl-4-(4-(methylsulfonyl)phenyl)-2,4-dihydro-3H-pyrazol-3-one], the half-life at 5 μM [1] is reported as 3 min, the half-life at 5 μM [2] is reported as 5 min and the half-life at 5 μM [3] is reported as 8 min.

Work on `CN1N=C(c2ccc([S+](C)[O-])c(F)c2)C(C)(NO)C1=O` (stereo not drawn) [Compound 38, 5-(3-fluoro-4-(methylsulfinyl)phenyl)-4-(hydroxyamino)-2,4-dimethyl-2,4-dihydro-3H-pyrazol-3-one] yielded a half-life at 5 μM [1] of 33 min, a half-life at 5 μM [2] of 54 min and a half-life at 5 μM [3] of 46 min.

In the case of `Cc1cc(C2=NN(C)C(=O)C2(C)NO)ccc1[S+](C)[O-]` (stereo not drawn) [Compound 39, 4-(hydroxyamino)-2,4-dimethyl-5-(3-methyl-4-(methylsulfinyl)phenyl)-2,4-dihydro-3H-pyrazol-3-one], the half-life at 5 μM [1] is reported as 59 min, the half-life at 5 μM [2] is reported as 134 min and the half-life at 5 μM [3] is reported as 60 min.

With `Cc1cc(C2=NN(C)C(=O)C2(C)NO)ccc1S(C)(=O)=O` (stereo not drawn) [Compound 41, 4-(hydroxyamino)-2,4-dimethyl-5-(3-methyl-4-(methylsulfonyl)phenyl)-2,4-dihydro-3H-pyrazol-3-one] the half-life at 5 μM [1] was 38 min, the half-life at 5 μM [2] was 64 min and the half-life at 5 μM [3] was 54 min.

`CO/N=C(\C)C1(NO)C(=O)N(C)N=C1c1ccc(S(C)(=O)=O)cc1` (stereo not drawn) [Compound 42, 4-(hydroxyamino)-4-(1-(methoxyimino)ethyl)-2-methyl-5-(4-(methylsulfonyl)phenyl)-2,4-dihydro-3H-pyrazol-3-one] showed a half-life at 5 μM [1] of 5 min, a half-life at 5 μM [2] of 9 min and a half-life at 5 μM [3] of 6 min.

`COc1ccc(C2(NO)C(=O)N(C)N=C2C)cc1` (stereo not drawn) [Compound 43, 4-(hydroxyamino)-4-(4-methoxyphenyl)-1,3-dimethyl-1H-pyrazol-5(4H)-one] gave a half-life at 5 μM [1] of 23 min, a half-life at 5 μM [2] of 25 min and a half-life at 5 μM [3] of 35 min.

Compound `CN1N=C(c2cc(F)c(S(C)(=O)=O)c(F)c2)C(C)(NO)C1=O` (stereo not drawn) [Compound 45, 5-(3,5-difluoro-4-(methylsulfonyl)phenyl)-4-(hydroxyamino)-2,4-dimethyl-2,4-dihydro-3H-pyrazol-3-one] has a half-life at 5 μM [1] of 31 min, a half-life at 5 μM [2] of 25 min and a half-life at 5 μM [3] of 40 min.

In the case of `CO/N=C(\C)C1(NO)C(=O)N(C)N=C1c1ccccc1` (stereo not drawn) [Compound 46, 4-(hydroxyamino)-4-(1-(methoxyimino)ethyl)-2-methyl-5-phenyl-2,4-dihydro-3H-pyrazol-3-one], the half-life at 5 μM [1] is reported as 12 min, the half-life at 5 μM [2] is reported as 9 min and the half-life at 5 μM [3] is reported as 11 min.

In the case of `COc1ccc(C2=NN(C)C(=O)C2(C)NO)cc1` (stereo not drawn) [Compound 53, 4-(hydroxyamino)-3-(4-methoxyphenyl)-1,4-dimethyl-1H-pyrazol-5(4H)-one], the half-life at 5 μM [1] is reported as 256 min, the half-life at 5 μM [2] is reported as 350 min and the half-life at 5 μM [3] is reported as 480 min.

In the case of `CN1N=C(c2ccc(OC(F)(F)F)cc2)C(C)(NO)C1=O` (stereo not drawn) [Compound 59, 4-(hydroxyamino)-1,4-dimethyl-3-(4-(trifluoromethoxy)phenyl)-1-pyrazol-5(4H)-one], the half-life at 5 μM [1] is reported as 150 min, the half-life at 5 μM [2] is reported as 80 min and the half-life at 5 μM [3] is reported as 77 min.

`CO/N=C(\C)C1(NO)C(=O)N(C)N=C1c1ccc(F)cc1` (stereo not drawn) [Compound 64, 3-(4-fluorophenyl)-4-(hydroxyamino)-4-(1-(methoxyimino)ethyl)-1-methyl-1H-pyrazol-5(4H)-one] showed a half-life at 5 μM [1] of 16 min, a half-life at 5 μM [2] of 6 min and a half-life at 5 μM [3] of 8 min.

Work on `CC1=NN(C)C(=O)C1(NO)c1ccc(Cl)cc1` (stereo not drawn) [Compound 66, 4-(4-chlorophenyl)-4-(hydroxyamino)-1,3-dimethyl-1H-pyrazol-5(4H)-one] yielded a half-life at 5 μM [1] of 7 min, a half-life at 5 μM [2] of 7 min and a half-life at 5 μM [3] of 10 min.

Compound `CN1N=C(c2ccc(SC(F)(F)F)cc2)C(C)(NO)C1=O` (stereo not drawn) [Compound 67, 4-(hydroxyamino)-1,4-dimethyl-3-(4-((trifluoromethyl)thio)phenyl)-1H-pyrazol-5(4H)-one] has a half-life at 5 μM [1] of 78 min, a half-life at 5 μM [2] of 106 min and a half-life at 5 μM [3] of 59 min.

In the case of `CN1N=C(c2ccc(S(C)(=O)=O)c(Cl)c2)C(C)(NO)C1=O` (stereo not drawn) [Compound 70, 3-(3-Chloro-4-methanesulfonylphenyl)-4-(hydroxyamino)-1,4-dimethyl-4,5-dihydro-1H-pyrazol-5-one], the half-life at 5 μM [1] is reported as 27 min, the half-life at 5 μM [2] is reported as 43 min and the half-life at 5 μM [3] is reported as 31 min.

Compound `COC(=O)c1ccc(C2=NN(C)C(=O)C2(C)NO)cc1` (stereo not drawn) [Compound 71, Methyl 4-[4-(hydroxyamino)-1,4 dimethyl-5-oxo-4,5-dihydro-1H-pyrazol-3-yl]benzoate] has a half-life at 5 μM [1] of 71 min, a half-life at 5 μM [2] of 3 min and a half-life at 5 μM [3] of 58 min.

`CN1N=C(c2ccc(S(C)(=O)=NC(=O)C(F)(F)F)cc2)C(C)(NO)C1=O` (stereo not drawn) [Compound 72, 2,2,2-Trifluoro-N-({4-[4-(hydroxyamino)-1,4-dimethyl-5-oxo-4,5-dihydro-1H-pyrazol-3-yl]phenyl}(methyl)oxo-λ^6-sulfanylidene)acetamide] showed a half-life at 5 μM [1] of 12 min, a half-life at 5 μM [2] of 9 min and a half-life at 5 μM [3] of 13 min.

Work on `COc1ccc(C2(NO)C(=O)N(C)N=C2C)cc1OC` (stereo not drawn) [Compound 73, 4-(3,4-Dimethoxyphenyl)-4-(hydroxyamino)-1,3-dimethyl-4,5-dihydro-1H-pyrazol-5-one] yielded a half-life at 5 μM [1] of 13 min, a half-life at 5 μM [2] of 18 min and a half-life at 5 μM [3] of 14 min.

Work on `CN1N=C(c2ccc(C(=O)O)cc2)C(C)(NO)C1=O` (stereo not drawn) [Compound 74, 4-[4-(Hydroxyamino)-1,4-dimethyl-5-oxo-4,5-dihydro-1H-pyrazol-3-yl]benzoic acid] yielded a half-life at 5 μM [1] of 175 min, a half-life at 5 μM [2] of 243 min and a half-life at 5 μM [3] of 183 min.

`COc1cc(C2=NN(C)C(=O)C2(C)NO)ccc1S(C)(=O)=O` (stereo not drawn) [Compound 77, 4-(Hydroxyamino)-3-(4-methanesulfonyl-3-methoxyphenyl)-1,4-dimethyl-4,5-dihydro-1H-pyrazol-5-one] gave a half-life at 5 μM [1] of 37 min, a half-life at 5 μM [2] of 62 min and a half-life at 5 μM [3] of 40 min.

`Cc1cc(C2=NN(C)C(=O)C2(C)NO)cc(C)c1S(C)(=O)=O` (stereo not drawn) [Compound 79, 4-(Hydroxyamino)-3-(4-methanesulfonyl-3,5-dimethylphenyl)-1,4-dimethyl-4,5-dihydro-1H-pyrazol-5-one] showed a half-life at 5 μM [1] of 49 min, a half-life at 5 μM [2] of 85 min and a half-life at 5 μM [3] of 49 min.
